In patent US12714678B2, “Peptides and methods of treating sepsis, atherosclerosis, thrombosis, stroke, heart attack and inflammation” (THE BOARD OF TRUSTEES OF THE UNIVERSITY OF ILLINOIS, priority 2019, dated 2026):
Where a SMILES comes first, the peptide text is derived from it. Where no end group is shown, it is not given here. The star is where a group is joined. Myristoyl = CCCCCCCCCCCCCC(=O)*

Columns and labels:
C57BL/6 mice [1] = experiment: Tail bleeding time; settings: M3mP6 HLPN 10 μmol/kg; aspirin 4.3 mg/kg; clopidogrel 4 mg/kg; ticagrelor 3 mg/kg; cangrelor 30 μg/kg; MB2mP6
C57/BL6 mice = experiment: Reverse passive Arthus (rpA) reaction; assay type: in vivo, mouse; settings: 5 μmol/kg, vs scrambled peptide
Protocol: C57/BL6 mice were anesthetized by i.p. injection of a mixture of ketamine and xylazine (100 mg/kg and 16 mg/kg mouse weight), and the medial surface of the mouse back was shaved. Shaved mice received intradermal injections of rabbit anti-bovine serum albumin (BSA) antibody (6 μg/μL, MP Biomedicals, OH) in 25 μL of 0.9% NaCl, followed by i.v. injection of BSA (75 μg/g mouse weight) as well as the peptide inhibitors (5 μmol/kg mouse weight) in 100 μL sterile 0.9% NaCl. In addition, control sites received 25 μL of PBS in parallel. Four hours after injection, mice were euthanized and inflamed or control skin samples at each injection site were collected. The hemoglobin (Hb) contents in the skin samples were quantified by hemoglobin colorimetric assay kit (Cayman Chemical, Ann Arbor, MI).

C57BL/6 mice [2] = experiment: Cecal ligation and puncture (CLP) sepsis model; assay type: in vivo, mouse; settings: bolus 2.5 μmol/kg then 1.25 μmol/kg/hour i.v.
Protocol: CLP sepsis was induced as described previously (32, 33). In brief, mice (14- to 16-week-old with equal number of each gender) were anesthetized by intraperitoneal administration of ketamine (100 mg/kg body weight) and xylazine (8 mg/kg). After a midline laparotomy, the cecum was ligated at about 1 cm from the end and then subjected to a double “through and through” perforation with an 18-gauge needle. Sham-operated mice underwent the same procedure except for ligation and puncture of the cecum. After the procedure, an analgesic (buprenorphine, 0.1 mg/kg, s.c.) was given immediately and every 12 h thereafter for 3 d. At these time points, fluid resuscitation (prewarmed 0.9% NaCl, 0.05 ml/g body weight) was given through subcutaneous injection to prevent fluid loss and help the recovery of body temperature. […] The survival of mice was observed every 6 h for 8 days and analyzed by the Log Rank test (using Prism GraphPad software (ver. 5.0), San Diego, CA, USA). […]
Twenty-four hours after CLP, mouse blood was collected and added to an EDTA-rinsed microcentrifuge tube or citrate buffer. […] The kidney function markers BUN, creatinine and cystatin C and mouse liver function marker ALT were detected using corresponding kits according to the manufacturers' instructions. […]

tail bleeding time vs normal control (C57BL/6 mice [1])	inflammation-induced hemorrhage (C57/BL6 mice)	Molecule	survival rate at 192 h (8 days), infusion immediately after CLP (C57BL/6 mice [2]) [%]
neither affected	neither affected	CCCCCCCCCCCCCC(=O)N[C@@H](Cc1ccccc1)C(=O)N[C@@H](CCC(=O)O)C(=O)N[C@@H](CCCCN)C(=O)N[C@@H](CCC(=O)O)C(=O)N[C@@H](CCCCN)C(=O)N[C@@H](CC(C)C)C(=O)O [MB2mP6, Myr-FEKEKL] (Myristoyl-FEKEKL-OH; C-terminus assumed)	
		Myr-EFKKLE (Myristoyl-EFKKLE) [control peptide, scrambled control for MB2mP6 in micellar nanoparticle formulation (CLP study)]	26
